Reference: PubChem BioAssay (NCI)
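Five concentrations, 48 hours, 96-well plates. GI50 marks 50% less growth. The concentration for full growth arrest is given as TGI.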

Tests used:
Assay in all cases: inhibition of tumour cell growth, NCI panel, 48 h
SK-OV-3 ovarian = system: SK-OV-3 ovarian
OVCAR-4 ovarian = system: OVCAR-4 ovarian
HT29 colon = system: HT29 colon
SK-MEL-2 melanoma = system: SK-MEL-2 melanoma
PC-3 prostate = system: PC-3 prostate
RXF 393 renal = system: RXF 393 renal
MALME-3M melanoma = system: MALME-3M melanoma
KM12 colon = system: KM12 colon
UO-31 renal = system: UO-31 renal
IGROV1 ovarian = system: IGROV1 ovarian
SK-MEL-5 melanoma = system: SK-MEL-5 melanoma
SN12C renal = system: SN12C renal
MDA-MB-435 = system: MDA-MB-435
K-562 leukemia = system: K-562 leukemia
UACC-62 melanoma = system: UACC-62 melanoma
UACC-257 melanoma = system: UACC-257 melanoma
COLO 205 colon = system: COLO 205 colon
SK-MEL-28 melanoma = system: SK-MEL-28 melanoma
SW-620 colon = system: SW-620 colon
NCI/ADR-RES ovarian = system: NCI/ADR-RES ovarian
MOLT-4 leukemia = system: MOLT-4 leukemia
786-0 renal = system: 786-0 renal
OVCAR-3 ovarian = system: OVCAR-3 ovarian
LOX IMVI melanoma = system: LOX IMVI melanoma
DU-145 prostate = system: DU-145 prostate
SNB-75 CNS = system: SNB-75 CNS
CCRF-CEM leukemia = system: CCRF-CEM leukemia
OVCAR-8 ovarian = system: OVCAR-8 ovarian
HCT-15 colon = system: HCT-15 colon
SF-268 CNS = system: SF-268 CNS
NCI-H23 lung = system: NCI-H23 lung
HCT-116 colon = system: HCT-116 colon
M14 melanoma = system: M14 melanoma
NCI-H460 lung = system: NCI-H460 lung
NCI-H226 lung = system: NCI-H226 lung
A498 renal = system: A498 renal
SR leukemia = system: SR leukemia
HS 578T breast = system: HS 578T breast
TK-10 renal = system: TK-10 renal
MCF7 breast = system: MCF7 breast
OVCAR-5 ovarian = system: OVCAR-5 ovarian
HCC-2998 colon = system: HCC-2998 colon
SF-295 CNS = system: SF-295 CNS
NCI-H522 lung = system: NCI-H522 lung
SNB-19 CNS = system: SNB-19 CNS
EKVX NSCLC = system: EKVX NSCLC
HL-60(TB) leukemia = system: HL-60(TB) leukemia
T-47D breast = system: T-47D breast
ACHN renal = system: ACHN renal
RPMI-8226 leukemia = system: RPMI-8226 leukemia
SF-539 CNS = system: SF-539 CNS
HOP-92 NSCLC = system: HOP-92 NSCLC
A549 NSCLC = system: A549 NSCLC
U251 CNS = system: U251 CNS
MDA-MB-231 breast = system: MDA-MB-231 breast

## CCCCn1c2cc(OCc3cn(-c4ccc(Cl)cc4)nn3)ccc2c2ccnc(C)c21
SK-OV-3 ovarian
  GI50: 5.45 µM
  TGI: 13.4 µM
OVCAR-4 ovarian
  GI50: 5.95 µM
  TGI: 25.5 µM
HT29 colon
  GI50: 6.25 µM
  TGI: > 33.3 µM
SK-MEL-2 melanoma
  GI50: 7.82 µM
  TGI: 22.5 µM
PC-3 prostate
  GI50: 7.85 µM
  TGI: > 33.3 µM
RXF 393 renal
  GI50: 6.5 µM
  TGI: 19.8 µM
MALME-3M melanoma
  GI50: 5.98 µM
  TGI: 14.5 µM
KM12 colon
  GI50: 10.1 µM
  TGI: > 33.3 µM
UO-31 renal
  GI50: 4.32 µM
  TGI: 10 µM
IGROV1 ovarian
  GI50: 9.02 µM
  TGI: > 33.3 µM
SK-MEL-5 melanoma
  GI50: 5.35 µM
  TGI: 9.87 µM
SN12C renal
  GI50: 8.16 µM
  TGI: > 33.3 µM
MDA-MB-435
  GI50: 9.47 µM
  TGI: > 33.3 µM
K-562 leukemia
  GI50: 2.89 µM
  TGI: > 33.3 µM
UACC-62 melanoma
  GI50: 4.96 µM
  TGI: 11.8 µM
UACC-257 melanoma
  GI50: 5.83 µM
  TGI: 11.1 µM
COLO 205 colon
  GI50: 5.76 µM
  TGI: 14.4 µM
SK-MEL-28 melanoma
  GI50: 5.82 µM
  TGI: 14 µM
SW-620 colon
  GI50: 11 µM
  TGI: > 33.3 µM
NCI/ADR-RES ovarian
  GI50: 6.98 µM
  TGI: 29.7 µM
MOLT-4 leukemia
  GI50: 6.07 µM
  TGI: 23.9 µM
786-0 renal
  GI50: 5.76 µM
  TGI: 11 µM
OVCAR-3 ovarian
  GI50: 6.41 µM
  TGI: 18.2 µM
LOX IMVI melanoma
  GI50: 5.91 µM
  TGI: 12.3 µM
DU-145 prostate
  GI50: 15.2 µM
  TGI: > 33.3 µM
SNB-75 CNS
  GI50: 5.09 µM
  TGI: 13.1 µM
CCRF-CEM leukemia
  GI50: 9.27 µM
  TGI: > 33.3 µM
OVCAR-8 ovarian
  GI50: 6.42 µM
  TGI: 23.9 µM
HCT-15 colon
  GI50: 6.74 µM
  TGI: > 33.3 µM
SF-268 CNS
  GI50: 9.15 µM
  TGI: > 33.3 µM
NCI-H23 lung
  GI50: 7.23 µM
  TGI: 26.6 µM
HCT-116 colon
  GI50: 5.11 µM
  TGI: 13.2 µM
M14 melanoma
  GI50: 5.82 µM
  TGI: 16.4 µM
NCI-H460 lung
  GI50: 7.2 µM
  TGI: 18.6 µM
NCI-H226 lung
  GI50: 5.51 µM
  TGI: 14.1 µM
A498 renal
  GI50: 5.08 µM
  TGI: 14.1 µM
SR leukemia
  GI50: 5.2 µM
  TGI: 22.4 µM
HS 578T breast
  GI50: 7.09 µM
  TGI: 32.1 µM
TK-10 renal
  GI50: 7.55 µM
  TGI: 14.1 µM
MCF7 breast
  GI50: 7.14 µM
  TGI: > 33.3 µM
OVCAR-5 ovarian
  GI50: 6.55 µM
  TGI: 21.5 µM
HCC-2998 colon
  GI50: 9.58 µM
  TGI: 30.4 µM
SF-295 CNS
  GI50: 5.03 µM
  TGI: 17.8 µM
NCI-H522 lung
  GI50: 4.72 µM
  TGI: 13.3 µM
SNB-19 CNS
  GI50: 14.1 µM
  TGI: > 33.3 µM
EKVX NSCLC
  GI50: 6.93 µM
  TGI: > 33.3 µM
HL-60(TB) leukemia
  GI50: 5.09 µM
  TGI: 12.6 µM
T-47D breast
  GI50: 4.3 µM
  TGI: 15 µM
ACHN renal
  GI50: 5.06 µM
  TGI: 10.3 µM
RPMI-8226 leukemia
  GI50: 3.43 µM
  TGI: 11.9 µM
SF-539 CNS
  GI50: 5.11 µM
  TGI: 10.3 µM
HOP-92 NSCLC
  GI50: 4.22 µM
  TGI: 16.3 µM
A549 NSCLC
  GI50: 8 µM
  TGI: > 33.3 µM
U251 CNS
  GI50: 5.66 µM
  TGI: 12.6 µM
MDA-MB-231 breast
  GI50: 7.26 µM
  TGI: 24.6 µM
